Marks after values point to notes of the source that are not given here.
Experiment: physchem
Assay type: physicochemical
Method: Measurement of Log P values as provided herein was performed according to EEC directive 79/831 Annex V.A8 by HPLC (High Performance Liquid Chromatography) on reversed phase columns with the following methods: […] If more than one Log P value is available within the same method, all the values are given and separated by “+”. Calibration was done with straight-chain alkan2-ones (with 3 to 16 carbon atoms) with known Log P values (measurement of Log P values using retention times with linear interpolation between successive alkanones). Lambda-max-values were determined using UV-spectra from 200 nm to 400 nm and the peak values of the chromatographic signals

| SMILES | LogP |
| --- | --- |
| Cc1ccc(CCNC(=O)c2cc(Cl)ncc2Oc2cccc(C3CC3)c2F)c(C)c1 [Compound I-062] | 5.11^[a] |
| Cc1ccc(C(F)(F)CNC(=O)c2cc(Cl)ncc2Oc2cccc(C3CC3)c2)c(C)c1 [Compound I-065] | 5.17^[a] |
| O=C(NCC(F)(F)c1ccc(Br)cc1Cl)c1cc(Cl)ncc1Oc1cccc(C2CC2)c1 [Compound I-066] | 5.36^[a] |
| Cc1ccc(C(F)(F)CNC(=O)c2cc(C)ncc2Oc2cccc(Cl)c2)c(Cl)c1 [Compound I-067] | 4.06^[a] |
| Cc1cccc(Oc2cnc(C)cc2C(=O)NCC(F)(F)c2ccc(C)cc2Cl)c1 [Compound I-068] | 4.06^[a] |
| Cc1ccc(C(F)(F)CNC(=O)c2cc(C)ncc2Oc2cccc(C3CC3)c2F)c(C)c1 [Compound I-069] | 4.46^[a] |
| Cc1ccc(C(F)(F)CNC(=O)c2cc(C)ncc2Oc2cccc(C3CC3)c2)c(C)c1 [Compound I-070] | 4.44^[a] |
| Cc1ccc(C(F)(F)CNC(=O)c2cc(C)ncc2Oc2cccc(C3CC3)c2)c(Cl)c1 [Compound I-071] | 4.39^[a] |
| C=Cc1cc(C(=O)NCC(F)(F)c2ccc(C)cc2C)c(Oc2cccc(C3CC3)c2)cn1 [Compound I-072] | 5.05^[a] |
| O=C(NCC(F)(F)c1ccc(C2CC2)cc1Cl)c1cc(Cl)ncc1Oc1cccc(C2CC2)c1F [Compound I-075] | 5.31^[a] |
| Cc1ccc(CCNC(=O)c2cc(N3CCCC3)ncc2Oc2cccc(C(F)(F)F)c2)c(C)c1 [Compound I-088] | 4.26^[a] |
| Cc1ccc(C(F)(F)CNC(=O)c2cc(C)ncc2Oc2cccc(C3CC3)c2F)c(Cl)c1 [Compound I-089] | 4.47^[a] |
| Cc1ccc(C(F)(F)CNC(=O)c2cc(Cl)nc(F)c2Oc2cccc(C(F)(F)F)c2)c(C)c1 [Compound I-092] | 5.04^[a] |
| CO/N=C(\C)c1cc(C(=O)NCCc2ccc(C)cc2C)c(Oc2cccc(C(F)(F)F)c2)cn1 [Compound I-093] | 5.36^[a] |
| CO/N=C(/C)c1cc(C(=O)NCCc2ccc(C)cc2C)c(Oc2cccc(C(F)(F)F)c2)cn1 [Compound I-094] | 4.85^[a] |
| Cc1ccc(CCNC(=O)c2cc(Cl)ncc2Oc2cccc(C(F)(F)F)c2)o1 [Compound I-095] | 4.05^[a] |
| Cc1cnn(CCNC(=O)c2cc(Cl)ncc2Oc2cccc(C(F)(F)F)c2)c1 [Compound I-096] | 3.14^[a] |
| O=C(NCCc1cccs1)c1cc(Cl)ncc1Oc1cccc(C(F)(F)F)c1 [Compound I-097] | 3.98^[a] |
| O=C(NCCn1cc(Cl)cn1)c1cc(Cl)ncc1Oc1cccc(C(F)(F)F)c1 [Compound I-098] | 3.40^[a] |
| O=C(NCCc1ncc(Cl)cn1)c1cc(Cl)ncc1Oc1cccc(C(F)(F)F)c1 [Compound I-099] | 3.34^[a] |
| O=C(NCCc1ccc2[nH]ccc2c1)c1cc(Cl)ncc1Oc1cccc(C(F)(F)F)c1 [Compound I-100] | 3.71^[a] |
| O=C(NCCc1cccc2[nH]ccc12)c1cc(Cl)ncc1Oc1cccc(C(F)(F)F)c1 [Compound I-101] | 3.71^[a] |
| CC(NC(=O)c1cc(Cl)ncc1Oc1cccc(C(F)(F)F)c1)c1ccc(Cl)s1 (centres unmarked) [Compound I-103] | 4.47^[a] |
| O=C(NCCc1ccc2c(c1)CCO2)c1cc(Cl)ncc1Oc1cccc(C(F)(F)F)c1 [Compound I-104] | 3.98^[a] |

| SMILES | LogP |
| --- | --- |
| O=C(NCCc1ccc2c(c1)OCCO2)c1cc(Cl)ncc1Oc1cccc(C(F)(F)F)c1 [Compound I-105] | 3.84^[a] |
| CC(C)Oc1ccc(CCNC(=O)c2cc(Cl)ncc2Oc2cccc(C(F)(F)F)c2)cn1 [Compound I-106] | 4.08^[a] |
| O=C(NCCc1ccc(C(F)(F)F)cn1)c1cc(Cl)ncc1Oc1cccc(C(F)(F)F)c1 [Compound I-107] | 3.91^[a] |
| O=C(NCCc1ccc2c(c1)OCO2)c1cc(Cl)ncc1Oc1cccc(C(F)(F)F)c1 [Compound I-108] | 3.87^[a] |
| O=C(NCCc1cnc(C(F)(F)F)nc1)c1cc(Cl)ncc1Oc1cccc(C(F)(F)F)c1 [Compound I-110] | 3.57^[a] |
| Cc1ccc(CCNC(=O)c2cc(Cl)ncc2Oc2ccc(C(F)(F)F)c(Cl)c2)c(C)c1 [Compound I-111] | 4.48^[a] |
| Cc1ccc(CCNC(=O)c2cc(C(C)O)ncc2Oc2cccc(C(F)(F)F)c2)c(C)c1 (centres unmarked) [Compound I-112] | 3.67^[a] |
| Cc1ccc(CCNC(=O)c2cc(C(C)F)ncc2Oc2cccc(C(F)(F)F)c2)c(C)c1 (centres unmarked) [Compound I-114] | 4.62^[a] |
| Cc1ccc(CCNC(=O)c2cc(C(F)(F)F)ncc2Oc2cccc(C3CC3)c2F)c(C)c1 [Compound I-116] | 5.38^[a] |
| Cn1cc(-c2ccc(C(F)(F)CNC(=O)c3cc(Cl)ncc3Oc3cccc(C(F)F)c3)c(Cl)c2)cn1 [Compound I-117] | 3.64^[a] |
| COCCc1cc(C(=O)NCCc2ccc(C)cc2C)c(Oc2cccc(C(F)(F)F)c2)cn1 [Compound I-118] | 4.16^[a] |
| CC(=O)c1ccc(C(F)(F)CNC(=O)c2cc(Cl)ncc2Oc2cccc(C(F)F)c2)c(Cl)c1 [Compound I-119] | 3.81^[a] |
| CCOC(=O)c1ccc(C(F)(F)CNC(=O)c2cc(Cl)ncc2Oc2cccc(C(F)F)c2)c(Cl)c1 [Compound I-120] | 4.47^[a] |
| Cc1ccc(CCNC(=O)c2cc(C3CCOC3)ncc2Oc2cccc(C(F)(F)F)c2)c(C)c1 (centres unmarked) [Compound I-121] | 4.30^[a] |
| Cc1ccc(CCNC(=O)c2cc(C3CCCC3)ncc2Oc2cccc(C(F)(F)F)c2)c(C)c1 [Compound I-122] | 5.57^[a] |
| C=Cc1ccc(C(F)(F)CNC(=O)c2cc(Cl)ncc2Oc2cccc(C(F)F)c2)c(Cl)c1 [Compound I-123] | 4.47^[a] |
| Cc1ccc(CCNC(=O)c2cc(Cl)ncc2Oc2cccc(C#N)c2F)c(C)c1 [Compound I-126] | 3.91^[a] |
| Cc1ccc(CCNC(=O)c2cc(Cl)ncc2Oc2cccc(C=O)c2F)c(C)c1 [Compound I-127] | 3.85^[a] |
| Cc1ccc(CCNC(=O)c2cc(Cl)ncc2Oc2cccc(Cl)c2F)c(C)c1 [Compound I-128] | 4.71^[a] |
| C#Cc1cccc(Oc2cnc(Cl)cc2C(=O)NCCc2ccc(C)cc2C)c1 [Compound I-129] | 4.45^[a] |
| Cc1ccc(CCNC(=O)c2cc(Cl)ncc2Oc2cccc([N+](=O)[O-])c2)c(C)c1 [Compound I-130] | 4.08^[a] |
| Cc1ccc(CCNC(=O)c2cc(Cl)ncc2Oc2cccc(C)c2F)c(C)c1 [Compound I-131] | 4.76^[a] |
| COc1cccc(Oc2cnc(Cl)cc2C(=O)NCCc2ccc(C)cc2C)c1F [Compound I-132] | 4.26^[a] |
| Cc1ccc(CCNC(=O)c2cc(Cl)ncc2Oc2ccccc2)c(C)c1 [Compound I-133] | 4.41^[a] |

| SMILES | LogP |
| --- | --- |
| Cc1ccc(CCNC(=O)c2cc(Cl)ncc2Oc2cccc(Br)c2F)c(C)c1 [Compound I-134] | 4.78^[a] |
| CCc1cccc(Oc2cnc(Cl)cc2C(=O)NCCc2ccc(C)cc2C)c1 [Compound I-135] | 5.23^[a] |
| Cc1ccc(CCNC(=O)c2cc(Cl)ncc2Oc2cccc(OC(F)F)c2)c(C)c1 [Compound I-136] | 4.43^[a] |
| Cc1ccc(CCNC(=O)c2cc(Cl)ncc2Oc2cccc(Br)c2)c(C)c1 [Compound I-137] | 4.86^[a] |
| Cc1ccc(CCNC(=O)c2cc(Cl)ncc2Oc2cccc(C3COC3)c2)c(C)c1 [Compound I-139] | 3.88^[a] |
| Cc1ccc(CCNC(=O)c2cc(Cl)ncc2Oc2cccc(I)c2)c(C)c1 [Compound I-141] | 5.01^[a] |
| C#Cc1ccc(C(F)(F)CNC(=O)c2cc(Cl)ncc2Oc2cccc(C(F)F)c2)c(Cl)c1 [Compound I-143] | 4.32^[a] |
| Cc1cccc(Oc2cnc(Cl)cc2C(=O)NCC(F)(F)c2ccc(Br)cc2Cl)c1 [Compound I-145] | 5.08^[a] |
| C=Cc1c(Cl)ncc(Oc2cccc(C(F)(F)F)c2)c1C(=O)NCC(F)(F)c1ccc(C)cc1C [Compound I-146] | 4.93^[a] |
| COC(=O)c1cccc(Oc2cnc(Cl)cc2C(=O)NCCc2ccc(C)cc2C)c1 [Compound I-147] | 4.20^[a] |
| Cc1ccc(C(F)(F)CNC(=O)c2c(Oc3cccc(C(F)(F)F)c3)cnc(Cl)c2C2CC2)c(C)c1 [Compound I-149] | 5.04^[a] |
| Cc1ccc(CCNC(=O)c2cc(Cl)ncc2Oc2cccc3c2CCC3)c(C)c1 [Compound I-150] | 5.45^[a] |
| Cc1ccc(CCNC(=O)c2cc(Cl)ncc2Oc2cccc(-c3ccccc3)c2)c(C)c1 [Compound I-151] | 5.44^[a] |
| CCN(CCc1ccccc1)C(=O)c1cc(Cl)ncc1Oc1cccc(C(F)(F)F)c1 [Compound I-152] | 4.44^[a] |
| Cc1ccc(C(F)(F)CNC(=O)c2c(Oc3cccc(C4CC4)c3F)cnc(Cl)c2Cl)c(C)c1 [Compound I-153] | 5.08^[a] |
| Cc1ccc(CCNC(=O)c2cc(Cl)ncc2Oc2ccc(F)c(Cl)c2)c(C)c1 [Compound I-154] | 4.72^[a] |
| C=Cc1cccc(Oc2cnc(Cl)cc2C(=O)NCC(F)(F)c2ccc(C)cc2C)c1 [Compound I-155] | 4.96^[a] |
| N#Cc1ccc(C(F)(F)CNC(=O)c2cc(Cl)ncc2Oc2cccc(C(F)F)c2)c(Cl)c1 [Compound I-156] | 3.87^[a] |
| COCc1cccc(Oc2cnc(Cl)cc2C(=O)NCCc2ccc(C)cc2C)c1 [Compound I-157] | 4.33^[a] |
| Cc1ccc(CCNC(=O)c2cc(Cl)nc(Cl)c2Oc2cccc(C(F)(F)F)c2)c(C)c1 [Compound I-158] | 5.14^[a] |
| Cc1ccc(CCNC(=O)c2cc(Cl)ncc2Oc2cccc(-n3ccc(C(F)(F)F)n3)c2)c(C)c1 [Compound I-159] | 5.03^[a] |
| CCc1cc(Oc2cnc(Cl)cc2C(=O)NCCc2ccc(C)cc2C)c(C(=O)OC)s1 [Compound I-162] | 4.51^[a] |
| Cc1ccc(C(F)(F)CNC(=O)c2cc(Cl)ncc2Oc2cncc(C(F)(F)F)c2)c(C)c1 [Compound I-163] | 4.15^[a] |
